Key:
[1] = tested on: Meloidogyne spp.; test: Nematocidal activity against Meloidogyne spp., application 7 days before transplantation (tomato in pots); type: in vivo; details: tomatoes, 4,000 g/hectare, treatment 7 days before transplantation; for Root development: 60 days after transplantation, 100% = development of comparative healthy root; for Height of plant (cm) / Gall index (scale 0-10): assessment 60 days after transplantation; for Gall index (scale 0-10): Bridge and Page scale, 0 = 0% affected root, 10 = 100% infested root
Description: Determination of the Nematocidal Activity Against Meloidogyne Spp. (Application 7 Days Before Transplantation)
(§1) The tests, aimed at testing the nematocidal activity of the product under consideration, were carried out using inocula taken from a breeding of Meloidogyne spp. maintained on tomato and tobacco plants in pots and grown in a greenhouse.
(§2) In order to perform the experiments, portions of roots having a large number of galls, and ground, in which larvae are present, starting from the second stage of age, were collected from the infested pots.
(§3) New pots having a diameter of 15 cm were half-filled with sterile earth. The portions of infested roots, previously cleaned, were positioned on the same in order to correctly evaluate the degree of infestation and ensure that each pot contained the same nematic charge. 200-300 g of infested earth were then added and subsequently covered with a thin layer of sterile earth.
(§4) The treatment was effected by pouring, onto the surface of the ground, 100 ml of solution in which the product to be tested was dissolved.
(§5) Tomato seedlings at a stage of two-three true leaves were transplanted into the pots thus prepared. Different tomato cultivars were adopted, having a different sensitivity to the parasite and with different growth rates. In particular, an ornamental variety (cv Microtom) was used for evaluating the final production, whose seedlings have reduced dimensions and are capable of reaching maturity of the fruit in pots and under greenhouse conditions, in about two months.
The evaluation of the product under consideration was effected by treating the pots 7 days before transplantation (according to what is indicated in the label of the commercial reference product NIMITZ® (Fluensulfone)).
The product was evaluated considering the possible phytotoxic effects that can jeopardize the development of the plant (a zero-ten scale was used wherein: zero=no symptoms, 10=plant destroyed) and the effectiveness with respect to nematodes.
(§6) The capacity of limiting the parasite was detected, at a distance of 30 and 60 days after transplanting, considering the development of the root system (wherein 100% is the development reached by the comparative healthy root) and the presence of galls on the roots. The presence of galls in the roots was estimated using the infestation scale proposed by Bridge and Page, in which the value zero corresponds to 0% of affected root and the value of 10 corresponds to 100% of infested root.
Table 2 indicates the results relating to the effectiveness of Compounds 1, 2 and 22 and Compounds CR1, CR2, CR3 on tomatoes at a dosage of 4,000 g/hectare, effecting the assessment 60 days after the transplantation.

[2] = tested on: Meloidogyne spp.; test: Nematocidal activity against Meloidogyne spp., application at the moment of transplantation (tomato in pots); type: in vivo; details: tomatoes, 4,000 g/hectare, 1 treatment at the moment of transplantation; for Root development: 60 days after transplantation, 100% = healthy root; for Gall index (scale 0-10) / Weight of plant: survey 60 days after transplantation
Description: as §1, §2, §3, §4, §5, §6
Determination of the Nematocidal Activity Against Meloidogyne Spp. (Application at the Moment of Transplantation)
The same experimental procedure as Example 4 was adopted for evaluating the nematocidal activity of the products under examination, except for the fact that this evaluation was effected by applying the product at the moment of transplantation.
Tables 3 and 4 indicate the results relating to the effectiveness of compounds 9, 10, 71, 75, 76 and the reference compound CR1 on tomatoes at a dose of 4,000 g/hectare effecting the survey 60 days after transplantation.

[3] = tested on: Meloidogyne spp.; test: Nematocidal activity against Meloidogyne spp., application with already cultivating crop (tomato in pots); type: in vivo; details: tomatoes, 4,000 g/hectare, repeated treatment after transplantation (already cultivating crop); for Root development: 60 days after transplantation, 100% = healthy root; for Gall index (scale 0-10) / Weight of plant: survey 60 days after transplantation
Description: as §1, §2, §3, §4, §5, §6
Determination of the Nematocidal Activity Against Meloidogyne Spp. (Application with Already Cultivating Crop)
The same experimental procedure as Example 4 was adopted for evaluating the nematocidal activity of the products under examination, except for the fact that this evaluation was effected by applying the product during the development of the seedlings (according to what is indicated in the label of the commercial reference product VYDATE® (Oxamil)).
Table 5 indicates the results relating to the effectiveness of compounds 1, 2, 6 and the compound CR1 on tomatoes at a dose of 4,000 g/hectare effecting the survey 60 days after transplantation.

[4] = tested on: tomatoes; test: Phytotoxicity on tomatoes, application with already cultivating crop; type: in vivo, tomato; details: zero = no symptoms, 10 = plant destroyed
Description: The product was evaluated considering the possible phytotoxic effects that can jeopardize the development of the plant (a zero-ten scale was used wherein: zero=no symptoms, 10=plant destroyed) and the effectiveness with respect to nematodes. Table 6 indicates the results relating to phytotoxicity on tomatoes applying compounds 1, 2, 6, 9, 71, 75, 76 and CR1 with already cultivating crop: […]

`O=S(=O)(CCC(F)=C(F)F)c1ncc(Cl)s1` [CR1, 5-chloro-2-(3,4,4-trifluoro-3-butenylsulfonyl)-thiazole, reference compound] was tested, and the Root development [1] was 70%, the “Height of plant (cm)” value [1] was 71 cm and the “Gall index (scale 0-10)” value [1] was 2.0 scale 0-10. The Root development ([2]; Table 3 test) was 60%, the “Gall index (scale 0-10)” value ([2]; Table 3 test) was 1.5 scale 0-10 and the “Weight of plant” value ([2]; Table 3 test) was 62 g. For the same compound, the Root development ([2]; Table 4 test) was 80%, the “Gall index (scale 0-10)” value ([2]; Table 4 test) was 1.0 scale 0-10 and the “Weight of plant” value ([2]; Table 4 test) was 50 g. The Root development [3] was 32%, the “Gall index (scale 0-10)” value [3] was 1.5 scale 0-10 and the “Weight of plant” value [3] was 25 g. For the same compound, the “Phytotoxicity (scale 0-10)” value [4] was 3 scale 0-10.

In the case of `Cc1nnc([S+]([O-])CCC(F)=C(F)F)s1` (stereo not shown) [Nr 1, 2-(3,4,4-trifluoro-3-butenylsulfinyl)-5-methyl-1,3,4-thiadiazole], the Root development [1] is reported as 95%, the “Height of plant (cm)” value [1] is reported as 75 cm and the “Gall index (scale 0-10)” value [1] is reported as 1.0 scale 0-10. The Root development [3] was 100%, the “Gall index (scale 0-10)” value [3] was 1.0 scale 0-10 and the “Weight of plant” value [3] was 36 g. The “Phytotoxicity (scale 0-10)” value [4] was 0 scale 0-10.

For `Cc1nnc(S(=O)(=O)CCC(F)=C(F)F)s1` [Nr 2, 2-(3,4,4-trifluoro-3-butenylsulfonyl)-5-methyl-1,3,4-thiadiazole], the Root development [1] was 95%, the “Height of plant (cm)” value [1] was 76 cm and the “Gall index (scale 0-10)” value [1] was 1.0 scale 0-10. For the same compound, the Root development [3] was 100%, the “Gall index (scale 0-10)” value [3] was 0.0 scale 0-10 and the “Weight of plant” value [3] was 33 g. The “Phytotoxicity (scale 0-10)” value [4] was 0 scale 0-10.

`Cc1nnc(S(=O)(=O)CCC=C(F)F)s1` [CR3, 2-(4,4-difluoro-3-butenylsulfonyl)-5-methyl-1,3,4-thiadiazole, reference compound] was tested, and the Root development [1] was 75%, the “Height of plant (cm)” value [1] was 70 cm and the “Gall index (scale 0-10)” value [1] was 1.5 scale 0-10.

`O=S(=O)(CCC(F)=C(F)F)c1nnc(Cl)s1` [Nr 22, 2-(3,4,4-trifluoro-3-butenylsulfonyl)-5-chloro-1,3,4-thiadiazole] was tested, and the Root development [1] was 90%, the “Height of plant (cm)” value [1] was 73 cm and the “Gall index (scale 0-10)” value [1] was 1.5 scale 0-10.

In the case of `CC1(C)CC([S+]([O-])CCC(F)=C(F)F)=NO1` (stereo not shown) [Nr 75], the Root development ([2]; Table 4 test) is reported as 100%, the “Gall index (scale 0-10)” value ([2]; Table 4 test) is reported as 1.0 scale 0-10 and the “Weight of plant” value ([2]; Table 4 test) is reported as 50 g. For the same compound, the “Phytotoxicity (scale 0-10)” value [4] was 0 scale 0-10.

`Cc1nnc(SCCC(F)=C(F)F)s1` [CR2, 2-(3,4,4-trifluoro-3-butenylthio)-5-methyl-1,3,4-thiadiazole, reference compound] was tested, and the Root development [1] was 70%, the “Height of plant (cm)” value [1] was 60 cm and the “Gall index (scale 0-10)” value [1] was 2.0 scale 0-10.

For `CC(C)Cc1nnc(S(=O)(=O)CCC(F)=C(F)F)s1` [Nr 10], the Root development ([2]; Table 3 test) was 75%, the “Gall index (scale 0-10)” value ([2]; Table 3 test) was 2.0 scale 0-10 and the “Weight of plant” value ([2]; Table 3 test) was 88 g.

For `CC1(C)CC(S(=O)(=O)CCC(F)=C(F)F)=NO1` [Nr 76], the Root development ([2]; Table 4 test) was 100%, the “Gall index (scale 0-10)” value ([2]; Table 4 test) was 1.5 scale 0-10 and the “Weight of plant” value ([2]; Table 4 test) was 51 g. For the same compound, the “Phytotoxicity (scale 0-10)” value [4] was 0 scale 0-10.

With `CC(C)Cc1nnc([S+]([O-])CCC(F)=C(F)F)s1` (stereo not shown) [Nr 9] the Root development ([2]; Table 3 test) was 70%, the “Gall index (scale 0-10)” value ([2]; Table 3 test) was 2.0 scale 0-10 and the “Weight of plant” value ([2]; Table 3 test) was 116 g. For the same compound, the “Phytotoxicity (scale 0-10)” value [4] was 0 scale 0-10.

In the case of `CC(C)c1nnc(S(=O)(=O)CCC(F)=C(F)F)s1` [Nr 6], the Root development [3] is reported as 95%, the “Gall index (scale 0-10)” value [3] is reported as 2.0 scale 0-10 and the “Weight of plant” value [3] is reported as 40 g. The “Phytotoxicity (scale 0-10)” value [4] was 0 scale 0-10.
